We go through three molecules from patent US5563052A, “Process for producing L-tryptophan” (Kyowa Hakko Kogyo Co., LTD, priority 1988, dated 1996).

Assay type in all cases: biochemical, Corynebacterium glutamicum
The test system of assay [1] is 3-deoxy-D-arabino-hepturosonate-7-phosphate synthase (DS). In words: Inhibition of DS activity by phenylalanine and tyrosine. Conditions: DS in the ATCC 13032 transformant carrying pCGDS1. Here is the method:
DS activities of Corynebacterium glutamicum ATCC 13032 and the transformant carrying pCGDS1 were determined according to the method of P. R. Sprinavasan, D. B. Sprinson, et al. [J. Biol. Chem., 234, 716 (1959)].

In assay [2] the test system is anthranilate phosphoribosyl transferase (PRT). The assay can be described thus: Feedback inhibition of anthranilate phosphoribosyl transferase (PRT) activity by tryptophan. Conditions: for IC50: read-out: Tryptophan concentration for 50% inhibiting the PRT activity. Here is the method:
(§1) AS activities of Corynebacterium glutamicum ATCC 13032 and TA108 strains carrying pCtrp1 or pCtrp57 were determined according to the method of H. Hagino, et al. [Agric. Biol. Chem., 39, 323 (1975)], and their PRT activities were determined according to the method of J. Ito and C. Yanofsky [J. Biol. Chem., 97, 734 (1969)]. AS and PRT activities of TA108 strains carrying pCtrp1 or pCtrp57 were more than 10 times as high as those of ATCC 13032 strain. Tryptophan concentrations for 50% inhibiting the AS activities of […] strain, TA108 strain carrying pCtrp1 and TA108 strain carrying pCtrp57 were 0.002 mM, 0.008 mM and 4.0 mM, respectively, while tryptophan concentrations for 50% inhibiting the PRT activities of these three strains were 0.19 mM, 0.19 mM and 4.8 mM, respectively.

In assay [3] the test system is anthranilate synthase (AS). The assay can be described thus: Feedback inhibition of anthranilate synthase (AS) activity by tryptophan. Conditions: for IC50: read-out: Tryptophan concentration for 50% inhibiting the AS activity. Here is the method:
as §1

Like-named read-outs stand apart in the source and are kept apart here.

As to `N[C@@H](Cc1ccccc1)C(=O)O` [phenylalanine], in assay [1], the “Inhibition of DS” value was “free from inhibition”.
Regarding `N[C@@H](Cc1c[nH]c2ccccc12)C(=O)O` [tryptophan], the “Factor by which PRT is less sensitive to tryptophan” value in assay [2] (PRT encoded by pCtrp57 compared with PRT encoded by pCtrp1) is on record as “about 25”. Also, the IC50 was 190 µM in assay [2] (PRT of TA108 strain carrying pCtrp1), 4800 µM in assay [2] (PRT of TA108 strain carrying pCtrp57), 8 µM in assay [3] (AS of TA108 strain carrying pCtrp1) and 4000 µM in assay [3] (AS of TA108 strain carrying pCtrp57). The “Factor by which AS is less sensitive to tryptophan” value in assay [3] (AS encoded by pCtrp57 compared with AS encoded by pCtrp1) is reported as “about 500”.
For `N[C@@H](Cc1ccc(O)cc1)C(=O)O` [tyrosine], in assay [1], the “Inhibition of DS” value is reported as “free from inhibition”.
